# Literature values, collected in patent US20090305955A1, “Cyclopeptide with Anti-Cancer Activity Derived from Collagen Type IV” (priority 2006, published 2009).
# Legend:
# [1] = test system: melanoma or fibrosarcoma cells; details: Pasco S et al, 2000a; cited from earlier work
# [2] = test system: murine melanoma B16F1 cells; details: cells pre-incubated with peptide, injected into C57BL6 syngenic mice; Floquet et al; cited from earlier work
# [3] = test system: various cancer cell lines; details: Han J et al; Shahan S et al; cited from earlier work
# angiogenesis = details: Pasco S et al, 2005; cited from earlier work
# [4] = target: T1, αVβ3 integrin-CD47 protein complex (Homo sapiens, UniProt P05106); details: Shahan T A et al; cited from earlier work
# T1 construct: αVβ3 integrin-CD47 protein complex present on the surface of melanoma cells
# T1 sequence (P05106 27-788): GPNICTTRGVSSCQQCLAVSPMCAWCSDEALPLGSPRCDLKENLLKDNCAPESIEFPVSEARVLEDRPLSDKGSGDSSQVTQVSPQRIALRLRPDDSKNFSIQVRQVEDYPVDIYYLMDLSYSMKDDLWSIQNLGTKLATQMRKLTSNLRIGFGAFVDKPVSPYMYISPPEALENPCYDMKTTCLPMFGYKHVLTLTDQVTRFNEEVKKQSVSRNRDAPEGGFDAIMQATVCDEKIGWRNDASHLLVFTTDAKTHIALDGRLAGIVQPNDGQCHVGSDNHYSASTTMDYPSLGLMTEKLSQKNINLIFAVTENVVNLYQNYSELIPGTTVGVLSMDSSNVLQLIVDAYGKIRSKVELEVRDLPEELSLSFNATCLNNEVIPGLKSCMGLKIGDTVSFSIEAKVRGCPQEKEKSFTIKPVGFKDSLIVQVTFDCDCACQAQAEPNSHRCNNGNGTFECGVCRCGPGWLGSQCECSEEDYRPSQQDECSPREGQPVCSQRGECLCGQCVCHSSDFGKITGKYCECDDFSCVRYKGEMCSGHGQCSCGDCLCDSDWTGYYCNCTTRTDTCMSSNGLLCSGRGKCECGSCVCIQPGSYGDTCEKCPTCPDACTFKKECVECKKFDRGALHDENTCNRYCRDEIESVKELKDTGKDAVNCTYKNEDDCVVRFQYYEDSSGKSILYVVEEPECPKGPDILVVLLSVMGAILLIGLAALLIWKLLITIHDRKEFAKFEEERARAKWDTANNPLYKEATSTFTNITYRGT
# T1 sequence (P06756 31-889 partner limits assumed): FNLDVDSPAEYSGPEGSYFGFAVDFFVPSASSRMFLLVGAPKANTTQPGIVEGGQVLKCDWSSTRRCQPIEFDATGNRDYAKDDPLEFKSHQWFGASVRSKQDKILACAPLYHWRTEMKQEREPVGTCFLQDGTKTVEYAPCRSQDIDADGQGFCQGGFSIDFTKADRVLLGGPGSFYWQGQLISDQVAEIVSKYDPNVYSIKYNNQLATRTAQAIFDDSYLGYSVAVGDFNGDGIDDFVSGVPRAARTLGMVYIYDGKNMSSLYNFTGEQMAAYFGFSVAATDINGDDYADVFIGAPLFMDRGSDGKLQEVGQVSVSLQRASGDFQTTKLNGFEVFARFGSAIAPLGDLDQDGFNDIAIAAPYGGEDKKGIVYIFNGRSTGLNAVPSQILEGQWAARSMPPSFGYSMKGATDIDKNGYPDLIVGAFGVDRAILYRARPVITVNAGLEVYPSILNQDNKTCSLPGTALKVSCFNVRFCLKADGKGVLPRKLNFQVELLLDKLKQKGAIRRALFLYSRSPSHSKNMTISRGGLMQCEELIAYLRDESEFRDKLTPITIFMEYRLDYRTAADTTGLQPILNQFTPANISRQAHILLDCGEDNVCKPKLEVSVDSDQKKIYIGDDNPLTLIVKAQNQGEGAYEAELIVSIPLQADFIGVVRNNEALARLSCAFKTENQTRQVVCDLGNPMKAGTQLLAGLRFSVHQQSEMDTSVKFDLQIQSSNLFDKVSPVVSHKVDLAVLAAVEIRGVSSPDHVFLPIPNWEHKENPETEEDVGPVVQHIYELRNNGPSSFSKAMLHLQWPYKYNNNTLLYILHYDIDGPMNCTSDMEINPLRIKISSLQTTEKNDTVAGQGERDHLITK
# T1 sequence (P06756 891-1048 partner limits assumed): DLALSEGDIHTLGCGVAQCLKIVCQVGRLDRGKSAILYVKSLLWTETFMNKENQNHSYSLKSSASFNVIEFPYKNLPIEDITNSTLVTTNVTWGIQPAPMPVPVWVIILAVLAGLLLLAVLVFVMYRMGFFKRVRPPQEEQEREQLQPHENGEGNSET
# T1 sequence (Q08722 19-323 partner): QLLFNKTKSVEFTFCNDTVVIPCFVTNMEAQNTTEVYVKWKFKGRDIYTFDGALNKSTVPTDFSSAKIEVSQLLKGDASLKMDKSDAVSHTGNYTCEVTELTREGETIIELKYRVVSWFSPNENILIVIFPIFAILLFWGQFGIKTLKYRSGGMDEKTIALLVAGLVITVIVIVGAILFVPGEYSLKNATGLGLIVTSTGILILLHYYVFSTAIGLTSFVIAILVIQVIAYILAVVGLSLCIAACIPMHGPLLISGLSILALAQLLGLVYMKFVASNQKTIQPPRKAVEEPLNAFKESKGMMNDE
sequence,measurement,setting,value
"CNYYSNSYSFWLASLNPER (Chemically synthesized NC1 alpha3 (IV) 185-203) [[NC1 α3(IV) 185-203], peptide constituted by amino acids 185 to 203 of the NC1 α3(IV) domain of type IV collagen]",migration of melanoma or fibrosarcoma cells in vitro,[1],inhibit the migration
same,tumoral growth of murine melanoma B16F1 cells,[2],inhibits the tumoral growth
same,proliferation of various cancer cell lines,[3],may inhibit the proliferation
same,angiogenesis in vitro and in vivo,angiogenesis,capable of inhibiting angiogenesis
same,binding to the αVβ3 integrin-CD47 protein complex on the surface of melanoma cells,[4],binds
